Test results as given in ChEMBL document CHEMBL3832039, “DailyMed|setid=8e4382de-df78-4821-b11e-c423442a7ff8 | DIOVAN - valsartan tablet|PD-Rx Pharmaceuticals, Inc”.

Experiments:
Format in all cases: ADME, organism-based
[1] = Apparent clearance of Valsartan following oral administration of 40 to 160 mg Valsartan, twice a day, to heart failure patients.; conditions: human, in vivo, dose Range 40 to 160 mg, dosed compound id 15, dosed compound name VALSARTAN, regimen Every 12h, tissue Plasma, read-out: CL(app) (converted)
Homo sapiens = assay: (§1) Pharmacokinetic parameters for Valsartan following oral or intravenous administration of Valsartan solution.; conditions: in vivo, po, dosed compound id 15, dosed compound name VALSARTAN
[2] = as §1; conditions: human, in vivo, dosed compound id 15, dosed compound name VALSARTAN, tissue Plasma

- CL/F [1]: 75 mL/min
- Excretion (Homo sapiens; tissue Feces): 83%
- Excretion (Homo sapiens; tissue Urine): 13%
- Tmax ([2]; po): 2 to 4 h
- clearance ([2]; route iv): 33.3 mL/min
- half-life ([2]; route iv): 6 h
- CL renal ([2]; route iv, read-out: CL_renal (converted)): 10.3 mL/min
- Vd ([2]; route iv, read-out: Vss): 17 L
Compound: CCCCC(=O)N(Cc1ccc(-c2ccccc2-c2nnn[nH]2)cc1)[C@H](C(=O)O)C(C)C [VALSARTAN]
